pEC50, pKd: −log10 of the molar value. Counter-ions that a name gives are not always drawn.
Legend:
[1] = test system: tdMEFs; assay: Combinatorial chemical screening for neural reprogramming of tdMEFs (Sox2/Nestin co-expression); type: cell-based, mouse; conditions: for generation of Sox2/Nestin double-positive cells: added to the six-molecule condition; for Sox2/Nestin double-positive cells: primary screening, single molecule added to basal condition (LDN, A83, CHIR, bFGF), ten days post-treatment
Method: (§1) Cells were washed once with 1×PBS and fixed with 4% paraformaldehyde at room temperature for 10 minutes, followed by permeabilization with 0.2% Triton X-100 in 1×PBS for 10 min, and blocking with 7.5% BSA for at least 1 hour. All primary antibodies were diluted in 1×PBS with 7.5% BSA, and the incubation was performed at 4° C. overnight. The cells were washed with 1×PBS five times for 10 min each at room temperature. The secondary antibodies, labeled with Alexa-488, Alexa-555, and Alexa-647, were purchased from Invitrogen, and were diluted into 1×PBS with 7.5% BSA. Incubation with the secondary antibodies was for 1 hour at room temperature, followed by five 10-minute washes with 1×PBS. The nuclei were stained with DAPI. Living cell staining was used for cell-surface marker O4, as described by Najm et al. (Nat. Biotechnol. 31: 426-433 (2013)). Antibodies used in this study are listed below in Table 1.
Briefly, tdMEFs were plated into neural reprogramming basal medium at 15,000 cells per well in 24-well plate, and after an overnight culture, individual small molecules from a focused chemical collection, including epigenetic modifiers, metabolism regulators, and signaling modulators, were added. Ten days post-treatment, cells were fixed, immune-stained, and analyzed for co-expression of Sox2 and Nestin, two typical NSC markers (FIG. 1A-1B).

[2] = test system: Hedgehog (Hh) signaling; conditions: read-out: EC50 activation of Hedgehog (Hh) signaling; cited from earlier work
[3] = biological target: SAPK2/p38 (Homo sapiens, UniProt Q16539); conditions: CK1 and ALK5 inhibitor versus SAPK2/p38; cited from earlier work
Sequence of SAPK2/p38 (Q16539 whole entry): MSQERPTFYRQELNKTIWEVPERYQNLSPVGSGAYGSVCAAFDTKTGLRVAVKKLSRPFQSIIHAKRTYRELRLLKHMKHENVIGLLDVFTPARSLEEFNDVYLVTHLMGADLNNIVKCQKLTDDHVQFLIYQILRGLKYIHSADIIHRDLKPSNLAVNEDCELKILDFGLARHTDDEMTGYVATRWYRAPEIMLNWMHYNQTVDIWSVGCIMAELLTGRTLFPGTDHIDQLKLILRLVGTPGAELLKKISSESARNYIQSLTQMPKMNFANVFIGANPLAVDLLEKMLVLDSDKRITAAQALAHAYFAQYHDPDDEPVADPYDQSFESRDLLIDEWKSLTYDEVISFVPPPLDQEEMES

[4] = test system: tdMEF; assay: M9 chemical conversion of tdMEFs to ciNSLCs (Sox2/Nestin immunostaining); type: cell-based, mouse; conditions: FIG. 2G
Method: To convert the fibroblasts into ciNSLCs, MEFs were seeded into Matrigel (Corning, 1:40 dilution)-coated 24-well plates at 15,000 per well, or 1-1.5 million in 15-cm dishes in MEF medium (Dulbecco's modified Eagle's medium supplemented with 10% FBS, 0.1 mM nonessential amino acids, and 2 mM Glutamax) for the first 24 hours. […] M9 medium was refreshed every other day. After a 10-day induction, cells were cultured in neural stem cells medium (NSC medium). Afterwards, the cells could be repeatedly propagated in NSC medium.
as §1, with “Antibodies used in this study are listed below in Table 1.” left out

[5] = test system: tdMEF; assay: Inhibitor assay: pathway inhibitors added to M9 reprogramming; type: cell-based, mouse; conditions: Sox2+/Nestin+ cells at day 10
Method: When performing the reprogramming, small molecule inhibitors, including 0.5 μM PD0325901, 10 μM SP 600125, 5 μM SB203580, 5 μM LY294002, or 2 μM LDE 225, was added in the freshly made M9 culture medium. DMSO was used in basal medium as control. The medium was changed every 2 days, and the Sox2+/Nestin+ cells were analyzed by immunostaining by day 10 after treatment.

[6] = test system: Hedgehog signaling pathway in Shh-light 2 cells; conditions: read-out: EC50 activation of Hedgehog signaling pathway; cited from earlier work
[7] = biological target: Smoothened (Smo) receptor (Homo sapiens, UniProt Q99835); conditions: cited from earlier work
Sequence of Smoothened (Smo) receptor (Q99835 28-787): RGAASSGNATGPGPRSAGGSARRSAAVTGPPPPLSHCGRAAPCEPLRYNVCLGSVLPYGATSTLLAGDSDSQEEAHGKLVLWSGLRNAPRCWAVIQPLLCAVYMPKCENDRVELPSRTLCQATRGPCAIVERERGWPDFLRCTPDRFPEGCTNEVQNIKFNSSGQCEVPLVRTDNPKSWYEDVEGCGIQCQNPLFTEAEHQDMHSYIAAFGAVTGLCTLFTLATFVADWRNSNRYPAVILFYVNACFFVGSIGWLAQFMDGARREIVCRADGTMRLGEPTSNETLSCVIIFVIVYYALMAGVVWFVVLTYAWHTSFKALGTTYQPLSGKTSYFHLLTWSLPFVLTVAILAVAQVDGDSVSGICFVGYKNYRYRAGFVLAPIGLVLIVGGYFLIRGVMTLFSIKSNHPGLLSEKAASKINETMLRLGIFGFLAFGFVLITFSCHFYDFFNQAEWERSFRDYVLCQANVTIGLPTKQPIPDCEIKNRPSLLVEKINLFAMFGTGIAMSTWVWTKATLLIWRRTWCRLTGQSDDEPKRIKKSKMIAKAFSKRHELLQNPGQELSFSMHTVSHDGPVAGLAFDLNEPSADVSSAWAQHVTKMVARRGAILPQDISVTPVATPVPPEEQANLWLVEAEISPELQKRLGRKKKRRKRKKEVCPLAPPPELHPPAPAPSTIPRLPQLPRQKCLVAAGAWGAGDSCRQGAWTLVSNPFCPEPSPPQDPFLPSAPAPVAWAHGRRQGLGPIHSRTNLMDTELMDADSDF

[8] = test system: A53T alpha-synuclein clearance in PC-12 cells; conditions: independent of rapamycin treatment; cited from earlier work
[9] = test system: ciNSLC-derived neurons; type: cell-based, mouse

With `N[C@@H]1C[C@H]1c1ccccc1` (racemic) [Parnate, tranylcypromine sulfate] as the compound, how does the “generation of Sox2/Nestin double-positive cells” value [1] read?
Its value is “further enhanced”.

For `O=C(O)[C@@H](Cc1c[nH]c2ccccc12)N1C(=O)c2ccccc2C1=O` (stereo in doubt) [RG108, N-Phthalyl-L-tryptophan], which “generation of Sox2/Nestin double-positive cells” value [1] is on record?
The value was “further enhanced”.

With `CC(C)CCC[C@](C)(O)[C@H]1CC[C@H]2[C@@H]3CC=C4C[C@@H](O)CC[C@]4(C)[C@H]3CC[C@@]21C` [(3β)-Cholest-5-ene-3,20-diol] as the compound, how does the pEC50 [2] read?
Its pEC50 is ~5.52.

Which “selectivity over SAPK2/p38” value [3] does the source give for `NC(=O)c1ccc(-c2nc(-c3ccc4c(c3)OCCO4)c(-c3ccccn3)[nH]2)cc1` [D 4476, 4-[4-(2,3-Dihydro-1,4-benzodioxin-6-yl)-5-(2-pyridinyl)-1H-imidazol-2-yl]benzamide] here?
The value was “greater than 20 fold”.

With `CNC1CCC(N(Cc2cccc(-c3ccncc3)c2)C(=O)c2sc3c(F)ccc(F)c3c2Cl)CC1` (stereo not shown) [Hh-Ag 1.5, 3-chloro-4,7-difluoro-N-(4-(methylamino)cyclohexyl)-N-(3-(pyridin-4-yl)benzyl)benzo[b]thiophene-2-carboxamide] as the compound, how does the “reprogramming efficiency when the component is removed from the M9 cocktail” value [4] read?
Its value is “affected the ciNSLC induction most”.

And the Sox2/Nestin double-positive cells [1]?
Its Sox2/Nestin double-positive cells is 3.68%.

Which “reduction of reprogramming efficiency” value ([5]; 2 μM added to M9 medium) does the source give for `Cc1c(C(=O)Nc2ccc(N3C[C@@H](C)O[C@@H](C)C3)nc2)cccc1-c1ccc(OC(F)(F)F)cc1` [LDE-225] here?
The value was “about 6 fold”.

Which “reduction of reprogramming efficiency” value ([5]; 5 μM LY294002 added to M9 medium) does the source give for `O=c1cc(N2CCOCC2)oc2c(-c3ccccc3)cccc12` [LY294002] here?
Its value is ~4 fold.

Which “reduction of reprogramming efficiency” value ([5]; 0.5 μM added to M9 medium) does the source give for `O=C(NOC[C@H](O)CO)c1ccc(F)c(F)c1Nc1ccc(I)cc1F` [PD0325901] here?
The value was “about 9 fold”.

Which results are given for `CN[C@H]1CC[C@H](N(Cc2cccc(-c3ccncc3)c2)C(=O)c2sc3ccccc3c2Cl)CC1` [SAG, 3-Chloro-N-[trans-4-(methylamino)cyclohexyl]-N-[[3-(4-pyridinyl)phenyl]methyl]benzo[b]thiophene-2-carboxamide]?
pEC50 [6]: ~8.52; pKd [7]: 7.23

With `C[S+]([O-])c1ccc(-c2nc(-c3ccc(F)cc3)c(-c3ccncc3)[nH]2)cc1` (stereo not shown) [SB203580] as the compound, how does the “reduction of reprogramming efficiency” value ([5]; 5 μM SB203580 added to M9 medium) read?
The value was ~5 fold.

With `C=CCNc1ncnc2ccc(Br)cc12` [SMER28, 6-bromo-N-2-propenyl-4-quinazolinamine] as the compound, how does the “generation of Sox2/Nestin double-positive cells” value [1] read?
The value was “further enhanced”.

And the A53T alpha-synuclein clearance [8]?
Its A53T alpha-synuclein clearance is “enhances”.

For `Oc1c2ccccc2c2c3c(cccc13)N=N2` [SP600125], which “reduction of reprogramming efficiency” value ([5]; 10 μM added to M9 medium) is on record?
Its value is ~6 fold.

For `CC1=C(/C=C/C(C)=C/C=C/C(C)=C/C(=O)O)C(C)(C)CCC1` [retinoic acid], which Sox2/Nestin double-positive cells [1] is on record?
Its Sox2/Nestin double-positive cells is 1.26%.

For `CC[N+](CC)(CC)CC` [tetraethylammonium], which persistent outward current [9] is on record?
Its persistent outward current is “blocked”.

With `NC1=N[C@H](O)[C@H]2[C@H]3O[C@]4(O)O[C@@H]([C@@H](O)[C@@]2(N1)[C@@H]4O)[C@]3(O)CO` [tetrodotoxin] as the compound, how does the inactivating inward current [9] read?
The inactivating inward current was “blocked”.

Which “reprogramming efficiency when the component is removed from the M9 cocktail” value [4] does the source give for “bFGF: basic fibroblast growth factor (bFGF; also known as FGF2)” here?
Its value is “affected the ciNSLC induction most”.

Source: patent publication US12104169B2, “Chemical reprogramming to generate neuronal cells” (The J. David Gladstone Institutes, a testamentary trust …, priority 2015, dated 2024)
